Reference: US10512665B2, “Methods and compositions related to inhibition of viral entry” (University of Utah Research Foundation, priority 2007, dated 2019)
Like-named read-outs stand apart in the source and are kept apart here.

Assays:
JRFL = assay: Viral infectivity (pseudovirion entry) assay, primary strain JRFL; type: cell-based, HIV-1
Experimental: While HXB2 is a commonly used lab-adapted HIV-1 isolate, it is often more vulnerable to inhibition than primary clinical HIV-1 isolates. […] Bianchi 2005).
All studies were done using the HXB2 strain unless otherwise specified. Viral infectivity was measured essentially as previously described (Hamburger 2005) with several modifications. 8 μg/mL DEAE-Dextran was used as a fusion enhancer in all assays. Media was changed 22-26 h following infection. […] Fits were weighted by the absolute s.e.m. from quadruplicate points with the minimum allowable error set to 1%.

HXB2 strain = assay: Single-cycle viral infectivity (viral entry) assay, HXB2 strain
Experimental: All studies were done using the HXB2 strain unless otherwise specified. […] 8 μg/mL DEAE-Dextran was used as a fusion enhancer in all assays. Media was changed 22-26 h following infection. […] Fits were weighted by the absolute s.e.m. from quadruplicate points with the minimum allowable error set to 1%.

[1] = JRFL pseudovirion entry, Table 4, read-out: IC50 (nM) (JRFL)
[2] = read-out: IC50 (nM) (HXB2), HXB2 pseudovirion entry, Table 4
[3] = read-out: IC50, inhibition of viral entry, HXB2
[4] = JRFL, read-out: IC50 against primary isolate JRFL
[5] = read-out: IC50 (μM) (HXB2), HXB2 viral entry, Table 3

Compound | IC50 (JRFL; [1]) | IC50 (HXB2 strain; [2]) | IC50 (HXB2 strain; [5]) | also measured
Cc1ccc(-c2ccc3c(c2)C=C(C(=O)Nc2ccc(C[N+](C)(C)C4CCOCC4)cc2)CCC3)cc1 [TAK779, reference compound] |  |  |  | IC90 (JRFL; CCR5 co-receptor inhibitor, JRFL entry assay): 100 nM
GACDYPEWQWLCAAGK [PIE7-GK] | 15800 nM | 389 nM |  | inhibitory potency compared in words (HXB2 strain): slightly enhanced potency
GACDYPEWQWLCAAGKK [PIE7-GKK] | 19100 nM | 382 nM |  | 
HACDYPEWQWLCELGK [PIE15] | 1450 nM | 66.7 nM |  | 
HPCDYPEWQWLCELGK [PIE12] | 578 nM |  |  | 
HPCDYPEWQWLCKLGK [PIE13] | 1470 nM | 41.3 nM |  | 
HPCDYPEWQWLCRLGK [PIE14] | 1050 nM | 33.1 nM |  | 
KGACDYKEWQWLCAA [PIE8] |  |  |  | IC50 (HXB2 strain; [3]): 1680 nM
KGACDYPEWQWLCAA [PIE7] | 24000 nM | 620 nM | 620 nM | reduction in potency against JRFL (JRFL; JRFL compared with HXB2): ~40 fold; improvement of potency on addition of TAK779 (JRFL; JRFL, addition of 100 nM TAK779): more than 3 fold; IC50 (JRFL; [4]): 24400 nM; more potent than D10-p5 (HXB2 strain; HXB2, compared with D10-p5): ~15 fold; inhibitory activity in combination with Fuzeon (HXB2 strain; against viral entry, with Fuzeon): at least additive; IC50 (HXB2 strain; [3]): 620 nM
KGACDYPEWQWLCAAGK [K-PIE7-GK] | 14800 nM |  |  | 
KGACDYPEWRWLCAA [PIE2] |  |  |  | IC50 (HXB2 strain; [3]): 1320 nM
KGACDYPEWRWLCAAA [PIE2-AAA] |  |  | 1440 nM | inhibitory potency compared in words (HXB2 strain): nearly indistinguishable from the potency of PIE2
KKGACDYPEWRWLCAA [2K-PIE2] |  |  | 2570 nM | less potent than PIE2 (HXB2 strain; HXB2, compared with PIE2): ~2 fold
KKGACELLGWEWAWLCAA [D10-p5, reference compound] |  |  | 9510 nM | inhibition of infection of cells (HXB2 strain; infectivity assay): inhibit infection of cells
KKGACESPEWRWLCAA [2K-PIE1] |  |  | 2220 nM | 
PEG-(KGACDYPEWQWLCAA)2 [PEG-(PIE7)2] |  | 1.9 nM | 1.9 nM | IC50 (JRFL; [4]): 2300 nM; inhibitory potency compared in words (HXB2 strain): comparable to Fuzeon; improvement in IC50 over the corresponding monomer (HXB2 strain; HXB2, dimer vs monomer): ~325 fold; IC50 (HXB2 strain; read-out: IC50 of dimeric inhibitors, HXB2): 1.9 nM
enfuvirtide [Fuzeon, reference compound] | 5 nM | 3.7 nM | 3.7 nM | 
